# Laboratory results reported in patent US20250051391A1, “PEPTIDE INHIBITORS AND METHODS FOR INHIBITING PROTEIN AGGREGATION IN NEURONS AND NEURODEGENERATIVE DISEASES” (THE GOVERNING COUNCIL OF THE UNIVERSITY OF TORONTO, priority 2021, published 2025).
# System: a-syn oligomers in HEK293 cells
# Experiment: Oligomers screen (split YFP-a-syn protein fragment complementation, FACS)
# Type: cell-based, human
# Text: To detect a-syn oligomers, a protein fragment complementation assay (PCA) of a-syn oligomerization in HEK293 cells (14) was used. In this assay, human A53T a-syn was fused to either the C- or N-terminal half of yellow fluorescent protein (YFP). No fluorescence is detectable while a-syn exists in monomers but, when a-syn oligomerizes, the two halves of YFP come in close enough proximity to form a functional, spontaneously fluorescent protein. […] By using fluorescence activated cell sorting (FACS), cells expressing Flag-tagged peptides that directly or indirectly interfered with a-syn oligomer formation were isolated and then the peptides were identified from genomic DNA (FIG. 1A). The screens yielded 10 hits (Table 1). The hit with the most reads (i.e., the most abundant) was the same peptide in all screens: IPIQLKA (SEQ ID NO: 1) (PDpep1) (Table 2). […] Lead peptide targets CHMP2B, a member of ESCRT-III
# PCR primers that included the Illumina adaptor sequences were used to amplify peptide coding sequences recovered from selection and cell sorting. Results were demultiplexed, and peptide counts were tallied. After demultiplexing, only reads with an average quality Phred score of >30 were selected, and frequencies were calculated. Finally, the reads were then normalized to the total number of peptides read for that sample population, and a scalar factor was applied. In parallel, ˜25 individual colonies were Sanger sequenced to compare to the NGS data.
# Lentiviruses were made in a 15 cm dish format by transfecting packaging cells (293T) with a three-plasmid system as previously described. Viral transduction of HEK293T cells, tet-off split luciferase a-syn cells, tet-off parent cells, and SH-SY5Y cells were performed with a multiplicity of infection of 0.3 (MOI=0.3). Infected cells were selected in puromycin-containing medium to eliminate uninfected cells and three aliquots of cells were collected for sampling of the initial (TO) cell population. Cells were treated with MG132 at concentrations of 0 μM, 10 μM, 25 μM or 50 μM. For the cell viability screen, surviving cells were collected and gDNA was extracted for identification of peptide inhibitors of cell toxicity. For the inhibition of a-syn aggregation screen, split YFP-a-syn constructs were transfected following stable expression of the peptides. Cells were sorted based on their GFP fluorescence intensities with a FACSVantage SE cell sorter (BD Bioscience).
# Cells were harvested by trypsin treatment and centrifuged at 500×g for 5 minutes. The pellet was resuspended in ice-cold PBS and centrifuged again. The pellet was then resuspended at a concentration of 4×10^6 cells/ml in the sorting buffer, which is PBS containing 100 Kunitz Dnase l/ml, 10 μg/ml propidium iodide (Sigma) and 2% FBS. The sorting solution was also supplemented with either 10 μM forskolin, 100 μM 5,6-Dichlorobenzimidazole riboside (DRB, Sigma), 10 μM forskolin (Sigma) and 100 μM DRB or DMSO, as a control. The cells were then sent through a 40 μm filter to remove large clumps and loaded into either a FACScan Flow Cytometer (BD Bioscience) for cell analysis or a FACSVantage SE cell sorter (BD Bioscience) for cell sorting. The cells with positive propidium iodide staining (i.e., dead cells) were first eliminated from the analysis or sorting pool. For cell sorting, the desired population, either the most or least bright EGFP-positive cells, according to the purpose of the experiments (see Results), was sorted into either 15 ml conical tubes or 96-well plates, which both contained complete DMEM culture media.
# Genomic DNA (gDNA) from peptide expressing cells at different time-points was extracted using QIAamp DNA Blood Mini Kit. PCR amplifications of peptides from gDNA in parallel with the lentiviral plasmid library (naïve library) were performed using indexed Illumina PCR primers to incorporate both the Illumina adapter sequences and indexing sequences. […]
substance,measurement,setting,value
"IPIQLKA [PDpep1, top hit of all screens; maps to CHMP2B residues 203-209]",Reads Ratio,,"1,218.98"
same,Reads GFP High,FACS fraction GFP High,12
same,Reads GFP Inter,FACS fraction GFP Inter,2853
same,Reads GFP Neg,FACS fraction GFP Neg,15556
